Measured values as given in ChEMBL document CHEMBL3399965, “Application of cultured human mast cells (CHMC) for the design and structure-activity relationship of IgE-mediated mast cell activation inhibitors” (Bioorg Med Chem Lett, 2015).
Calls of active or inactive are those of the source. No cut-off for these calls is given here.

Assays:
[1] = target: T1, Tyrosine-protein kinase SYK (Homo sapiens, UniProt P43405); assay: Inhibition of SYK in human mast cell cultures assessed as reduction in ionomycin-induced calcium mobilization mediated degranulation by tryptase release assay
[2] = target: T1, Tyrosine-protein kinase SYK; assay: Inhibition of SYK in human mast cell cultures assessed as reduction in IgE-induced FCepsilonR1 mediated degranulation by tryptase release assay

SMILES | inhibition [1] | EC50 [2] [nM] | EC50 [1] [nM] | inhibition [2]
Fc1cnc(Nc2ccc(N3CCOCC3)cc2)nc1Nc1ccc(N2CCOCC2)cc1 | inactive | 4140 | – | –
CCOc1ccc(Nc2ncc(F)c(Nc3ccc(OCC)cc3)n2)cc1 | inactive | – | – | –
Nc1ccc(Nc2ncc(F)c(Nc3ccc(N)cc3)n2)cc1 | inactive | 4250 | – | –
Oc1cccc(Nc2ncc(-c3ccccc3)c(Nc3cccc(O)c3)n2)c1 | inactive | 2900 | – | –
Fc1cnc(Nc2ccc(OCc3nnn[nH]3)cc2)nc1Nc1ccc(OCc2nnn[nH]2)cc1 | inactive | – | – | inactive
COCCOc1cccc(Nc2ncc(F)c(Nc3cccc(OCCOC)c3)n2)c1 | inactive | 4150 | – | –
CCOc1ccc(Nc2cc(Cl)nc(Nc3ccc(OCC)cc3)n2)cc1 | inactive | – | – | inactive
CCOc1ccc(Nc2ncc(C)c(Nc3ccc(OCC)cc3)n2)cc1 | inactive | – | – | inactive
Fc1cnc(Nc2ccc(C(F)(F)F)cc2)nc1Nc1ccc(C(F)(F)F)cc1 | inactive | – | – | inactive
Oc1cccc(Nc2cc(-c3ccccc3)nc(Nc3cccc(O)c3)n2)c1 | inactive | 5800 | – | –
N#Cc1ccc(Nc2ncc(F)c(Nc3ccc(C#N)cc3)n2)cc1 | inactive | 9830 | – | –
Oc1cccc(Nc2ncc(F)c(Nc3cccc(O)c3)n2)c1 | inactive | – | – | –
O=C(O)COc1ccc(Nc2ncc(F)c(Nc3ccc(OCC(=O)O)cc3)n2)cc1 | inactive | – | – | inactive
NC(=O)COc1ccc(Nc2ncc(F)c(Nc3ccc(OCC(N)=O)cc3)n2)cc1 | inactive | – | – | inactive
CCOc1cccc(Nc2ncc(F)c(Nc3cccc(OCC)c3)n2)c1 | inactive | 3100 | – | –
OCc1cccc(Nc2ncc(F)c(Nc3cccc(CO)c3)n2)c1 | inactive | 2800 | – | –
COc1cccc(Nc2ncc(F)c(Nc3cccc(OC)c3)n2)c1 | inactive | 1730 | – | –
CNC(=O)CNc1cccc(Nc2ncc(F)c(Nc3cccc(O)c3)n2)c1 | inactive | – | – | –
CC(C)Oc1ccc(Nc2ncc(F)c(Nc3ccc(OC(C)C)cc3)n2)cc1 | inactive | 2200 | – | –
Oc1ccc(Nc2ncc(F)c(Nc3ccc(O)cc3)n2)cc1 | inactive | 3400 | – | –
N#CCOc1ccc(Nc2ncc(F)c(Nc3cccc(O)c3)n2)cc1 | – | – | 10000 | –
Fc1cnc(Nc2cccc(Cl)c2)nc1Nc1cccc(Cl)c1 | inactive | 5810 | – | –
Fc1cnc(Nc2cccc(OC(F)(F)F)c2)nc1Nc1cccc(OC(F)(F)F)c1 | inactive | 5080 | – | –
CCOc1ccc(Nc2ccnc(Nc3ccc(OCC)cc3)n2)cc1 | inactive | 3380 | – | –

Further molecules by falling EC50 [2], results first:

inhibition [1] | EC50 [2] [nM] | EC50 [1] [nM] | inhibition [2] | SMILES
– | 1550 | 10000 | – | NC(=O)COc1ccc(Nc2nc(Nc3cccc(O)c3)ncc2F)cc1
inactive | 1430 | – | – | COc1ccc(Nc2ncc(F)c(Nc3ccc(OC)cc3)n2)cc1
inactive | 1290 | – | – | CNC(=O)COc1cccc(Nc2ncc(F)c(Nc3ccc(N4CCOCC4)cc3)n2)c1
inactive | 1100 | – | – | CCOc1ccc(Nc2nc(Nc3cccc(OCC(=O)NC)c3)ncc2F)cc1
inactive | 950 | – | – | N#Cc1cccc(Nc2ncc(F)c(Nc3cccc(C#N)c3)n2)c1
– | 940 | 10000 | – | COC(=O)COc1ccc(Nc2nc(Nc3ccc(OCC(N)=O)cc3)ncc2F)cc1
inactive | 930 | – | – | OCCOc1cccc(Nc2ncc(F)c(Nc3cccc(OCCO)c3)n2)c1
inactive | 900 | – | – | Cc1cnc(Nc2cccc(O)c2)nc1Nc1cccc(O)c1
inactive | 760 | – | – | Cn1nnnc1COc1ccc(Nc2ncc(F)c(Nc3ccc(OCc4nnnn4C)cc3)n2)cc1
inactive | 670 | – | – | OCCOc1cccc(Nc2nc(Nc3cccc(O)c3)ncc2F)c1
– | 530 | 10000 | – | NC(=O)COc1ccc(Nc2ncc(F)c(Nc3cccc(O)c3)n2)cc1
inactive | 500 | – | – | Oc1cccc(Nc2ccnc(Nc3cccc(O)c3)n2)c1
inactive | 440 | – | – | N#Cc1cnc(Nc2cccc(O)c2)nc1Nc1cccc(O)c1
– | 430 | 10000 | – | CNC(=O)COc1cccc(Nc2ncc(F)c(Nc3ccc(C(C)(C)C)cc3)n2)c1
– | 430 | 2480 | – | COC(=O)COc1ccc(Nc2ncc(F)c(Nc3ccc(OCC(N)=O)cc3)n2)cc1
inactive | 400 | – | – | CNC(=O)COc1cccc(Nc2ncc(F)c(Nc3ccc(OC(F)(F)F)cc3)n2)c1
– | 380 | 1700 | – | COC(=O)COc1ccc(Nc2ncc(F)c(Nc3ccc(OCC(=O)OC)cc3)n2)cc1
inactive | 370 | – | – | N#CCOc1ccc(Nc2ncc(F)c(Nc3ccc(OCC#N)cc3)n2)cc1
inactive | 330 | – | – | CCOC(=O)CNc1cccc(Nc2ncc(F)c(Nc3cccc(O)c3)n2)c1
inactive | 280 | – | – | CC(C)(CO)c1ccc(Nc2nc(Nc3cccc(OCCO)c3)ncc2F)cc1
inactive | 270 | – | – | Oc1cccc(Nc2ncc(C(F)(F)F)c(Nc3cccc(O)c3)n2)c1
inactive | 230 | – | – | Oc1cccc(Nc2ncc(Br)c(Nc3cccc(O)c3)n2)c1
inactive | 210 | – | – | CNC(=O)COc1cccc(Nc2ncc(F)c(Nc3ccc(C(F)(F)F)cc3)n2)c1
